Each block holds one molecule with its values, some of them ahead of it.
Key:
[1] = Dexamethasone palmitate solubility in FDA approved oils for ophthalmic use; format: physicochemical
Procedure: 8.1 Solubility in FDA Approved Oils for Ophthalmic Use
Dexamethasone palmitate solubility was assessed in mineral oil, castor oil and MCT.

[2] = cited from earlier work
[3] = Reconstitution stability of lyophilized tacrolimus NCs in isotonic aqueous solution; format: physicochemical; conditions: room temperature

Molecule: CCCCCCCCCCCCCCCC(=O)OCC(=O)[C@@]1(O)[C@H](C)C[C@H]2[C@@H]3CCC4=CC(=O)C=C[C@]4(C)[C@@]3(F)[C@@H](O)C[C@@]21C [Dexamethasone, Dexamethasone palmitate]
Concentration ([1]; solubility in Castor oil): 33600 µg/mL
Concentration ([1]; solubility in MCT): 46600 µg/mL
Concentration ([1]; solubility in Mineral oil): 1300 µg/mL

Molecule: Cyclosporine A [CsA]
skin levels reported to be active for psoriasis ([2]; equivalent to 1 ng/mg): 1000 ng/g
CsA concentration associated with good clinical response ([2]; human patients with psoriasis, 12-hour trough): higher than 100 ng/ml

time the active remained stable in aqueous formulation [3]: at least 2 weeks
Molecule: C=CC[C@@H]1/C=C(\C)C[C@H](C)C[C@H](OC)[C@H]2O[C@@](O)(C(=O)C(=O)N3CCCC[C@H]3C(=O)O[C@H](/C(C)=C/[C@@H]3CC[C@@H](O)[C@H](OC)C3)[C@H](C)[C@@H](O)CC1=O)[C@H](C)C[C@@H]2OC [Tacrolimus]

Source: patent publication US20210128534A1, “DRUG DELIVERY SYSTEMS” (YISSUM RESEARCH DEVELOPMENT COMPANY OF THE HEBREW …, priority 2018, published 2021)
